The target of the assay is T1, Human VPS34 (Homo sapiens, UniProt Q8NEB9).
T1 construct: GST (N); host or cells: SF9 insect cells (baculovirus)
T1 sequence (Q8NEB9 whole entry): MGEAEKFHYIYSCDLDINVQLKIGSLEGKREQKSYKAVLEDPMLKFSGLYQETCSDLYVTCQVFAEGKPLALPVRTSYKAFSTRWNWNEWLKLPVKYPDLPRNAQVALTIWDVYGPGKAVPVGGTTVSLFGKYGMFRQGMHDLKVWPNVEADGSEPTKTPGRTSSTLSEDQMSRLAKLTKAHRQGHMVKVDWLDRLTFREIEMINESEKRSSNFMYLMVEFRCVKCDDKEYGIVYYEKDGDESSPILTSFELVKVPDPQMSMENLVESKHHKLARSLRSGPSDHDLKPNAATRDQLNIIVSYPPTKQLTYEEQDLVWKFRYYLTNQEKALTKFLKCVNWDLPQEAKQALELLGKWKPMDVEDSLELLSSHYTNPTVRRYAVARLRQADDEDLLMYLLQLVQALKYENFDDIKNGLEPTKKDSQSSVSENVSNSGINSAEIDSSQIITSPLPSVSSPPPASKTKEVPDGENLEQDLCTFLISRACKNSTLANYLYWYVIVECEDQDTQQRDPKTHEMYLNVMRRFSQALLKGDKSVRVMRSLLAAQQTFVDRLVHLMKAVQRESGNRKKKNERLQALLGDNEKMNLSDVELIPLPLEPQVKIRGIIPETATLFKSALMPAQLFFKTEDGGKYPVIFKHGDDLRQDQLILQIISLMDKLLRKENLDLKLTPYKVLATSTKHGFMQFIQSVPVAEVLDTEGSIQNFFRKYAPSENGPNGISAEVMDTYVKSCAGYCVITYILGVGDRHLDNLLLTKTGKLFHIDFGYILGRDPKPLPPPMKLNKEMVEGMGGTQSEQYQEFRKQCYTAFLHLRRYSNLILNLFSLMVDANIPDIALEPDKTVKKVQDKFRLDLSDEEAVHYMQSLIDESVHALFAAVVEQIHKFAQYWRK
The assay is described as follows: Human VPS34 Enzyme Assay (Adapta TR-FRET). The settings on record: compound at 1.111 μM; read-out: Average VPS34 % INH @ 1.111 μM. It is filed as biochemical.
Regarding `COCCNC(=O)c1cc(-c2cc(NC(C)=O)ncc2C)oc1-c1ccccc1Cl` [Compound I-29, 5-(2-acetamido-5-methylpyridin-4-yl)-2-(2-chlorophenyl)-N-(2-methoxyethyl)-3-furamide], the inhibition at 1.111 µM stood at 116%.
As for `CC(=O)Nc1cc(-c2nc(N3CCCC(N(C)C)C3)c(-c3nnc[nH]3)o2)c(C)cn1` (centres unmarked) [Compound I-79, N-(4-{4-[3-(dimethylamino)piperidin-1-yl]-5-(4H-1,2,4-triazol-3-yl)-1,3-oxazol-2-yl}-5-methylpyridin-2-yl)acetamide], the figure is 82%.
For `CC(=O)Nc1cc(-c2cc(C(=O)NCCc3cn4ccccc4n3)c(-c3ccccc3Cl)o2)c(C)cn1` [Compound I-41, 5-(2-acetamido-5-methylpyridin-4-yl)-2-(2-chlorophenyl)-N-[2-(imidazo[1,2-a]pyridin-2-yl)ethyl]-3-furamide], the inhibition at 1.111 µM was determined as 90%.
The figure for `CC(=O)Nc1cc(-c2cc(C(C)=O)c(-c3ccccc3Cl)o2)c(C)cn1` [Compound I-27, N-{4-[4-acetyl-5-(2-chlorophenyl)-2-furyl]-5-methylpyridin-2-yl}acetamide] is 133%; for `CC(=O)Nc1cc(-c2nc(-c3cc(CN(C)C)ccc3Cl)c(-c3nnc[nH]3)o2)c(C)cn1` [Compound I-40, N-{4-[4-{2-chloro-5-[(dimethylamino)methyl]phenyl}-5-(4H-1,2,4-triazol-3-yl)-1,3-oxazol-2-yl]-5-methylpyridin-2-yl}acetamide] it is 115%; for `CC(=O)Nc1cc(-c2cc(C(=O)NCc3ccccc3)c(-c3ccccc3Cl)o2)c(C)cn1` [Compound I-53, 5-(2-acetamido-5-methylpyridin-4-yl)-N-benzyl-2-(2-chlorophenyl)-3-furamide] it is 104%.
As for `CC(=O)Nc1cc(-c2cc(C(=O)Nc3nccs3)c(-c3ccccc3Cl)o2)c(C)cn1` [Compound I-15, 5-(2-acetamido-5-methylpyridin-4-yl)-2-(2-chlorophenyl)-N-(1,3-thiazol-2-yl)-3-furamide], the figure is 103%; as for `Cc1cnc(NC(=O)C2CC2)cc1-c1nc(-c2nnc[nH]2)c(-c2ccccc2Cl)o1` [Compound I-77, N-{4-[5-(2-chlorophenyl)-4-(4H-1,2,4-triazol-3-yl)-1,3-oxazol-2-yl]-5-methylpyridin-2-yl}cyclopropanecarboxamide], 120%; as for `CC(=O)Nc1cc(-c2nc(-c3cc(CN4CCCC4)ccc3Cl)c(C(=O)O)o2)c(C)cn1` [Compound I-51, 2-(2-acetamido-5-methylpyridin-4-yl)-4-[2-chloro-5-(pyrrolidin-1-ylmethyl)phenyl]-1,3-oxazole-5-carboxylic acid], 131%.
The figure for `COC(CNC(=O)c1cc(-c2cc(NC(C)=O)ncc2C)oc1-c1ccccc1Cl)OC` [Compound I-22, 5-(2-acetamido-5-methylpyridin-4-yl)-2-(2-chlorophenyl)-N-(2,2-dimethoxyethyl)-3-furamide] is 110%; for `Clc1ccccc1-c1oc(-c2ccncc2)nc1-c1nnc[nH]1` [Compound I-49, 4-[5-(2-chlorophenyl)-4-(4H-1,2,4-triazol-3-yl)-1,3-oxazol-2-yl]pyridine] it is 19%; for `CC(=O)Nc1cc(-c2cc(C(=O)NCCCn3ccnc3)c(-c3ccccc3Cl)o2)c(C)cn1` [Compound I-24, 5-(2-acetamido-5-methylpyridin-4-yl)-2-(2-chlorophenyl)-N-[3-(1H-imidazol-1-yl)propyl]-3-furamide] it is 102%.
With `CCNC(=O)c1cc(-c2cc(NC(C)=O)ncc2C)oc1-c1ccccc1Cl` [Compound I-81, 5-(2-acetamido-5-methylpyridin-4-yl)-2-(2-chlorophenyl)-N-ethyl-3-furamide], the inhibition at 1.111 µM came out at 112%.
The figure for `CC(=O)Nc1cc(-c2nc(C(=O)NC3CCC3)c(-c3ccccc3Cl)o2)c(C)cn1` [Compound I-74, 2-(2-acetamido-5-methylpyridin-4-yl)-5-(2-chlorophenyl)-N-cyclobutyl-1,3-oxazole-4-carboxamide] is 28%.
On to `O=C(Nc1cc(-c2nc(-c3nnc[nH]3)c(-c3ccccc3Cl)o2)ccn1)C1CC1` [Compound I-18, N-{4-[5-(2-chlorophenyl)-4-(4H-1,2,4-triazol-3-yl)-1,3-oxazol-2-yl]pyridin-2-yl}cyclopropanecarboxamide], for which the inhibition at 1.111 µM amounted to 120%.
Turning to `CC(=O)Nc1cc(-c2cc(-c3nnc[nH]3)c(-c3cc(CN(C)C)ccc3Cl)o2)c(C)cn1` [Compound I-7, N-{4-[5-{2-chloro-5-[(dimethylamino)methyl]phenyl}-4-(4H-1,2,4-triazol-3-yl)-2-furyl]-5-methylpyridin-2-yl}acetamide], the inhibition at 1.111 µM was 147%.
The figure for `CC(=O)Nc1cc(-c2cc(C(=O)NCc3cccnc3)c(-c3ccccc3Cl)o2)c(C)cn1` [Compound I-68, 5-(2-acetamido-5-methylpyridin-4-yl)-2-(2-chlorophenyl)-N-(pyridin-3-ylmethyl)-3-furamide] is 104%.
Consider `CC(=O)Nc1cc(-c2nc(-c3ccccc3Cl)c(-c3ncco3)o2)c(C)cn1` [Compound I-33, N-{4-[4′-(2-chlorophenyl)-2,5′-bi-1,3-oxazol-2′-yl]-5-methylpyridin-2-yl}acetamide], for which the inhibition at 1.111 µM was 102%.
Take `CC(=O)Nc1ccc(-c2nc(-c3nnc[nH]3)c(-c3ccccc3Cl)o2)cc1` [Compound I-8, N-{4-[5-(2-chlorophenyl)-4-(4H-1,2,4-triazol-3-yl)-1,3-oxazol-2-yl]phenyl}acetamide]: the inhibition at 1.111 µM was 7%.
In the case of `COCCNC(=O)c1nc(-c2cc(NC(C)=O)ncc2C)oc1-c1ccccc1Cl` [Compound I-64, 2-(2-acetamido-5-methylpyridin-4-yl)-5-(2-chlorophenyl)-N-(2-methoxyethyl)-1,3-oxazole-4-carboxamide], the inhibition at 1.111 µM stood at 64%.
